# Test results taken from patent publication EP4755889A1, “COMPOUND FOR DETECTING AMYLOID-BETA OLIGOMER AND METHOD FOR DIAGNOSING DEGENERATIVE BRAIN DISEASE USING SAME” (Amyloid Solution Inc., priority 2024, dated 2025).
# Experiments:
# [1] = target: T1, Aβ1-42-Aβn-(n+5) complexes (Homo sapiens, UniProt P05067); test: Mapping Amyloid Plate (MAP): binding to complexes of Aβ1-42 with fragments
# T1 construct: full-length Aβ1-42 peptide was added to the MAP and incubated at 37 °C for 8 hours
# Experimental: A Mapping Amyloid Plate (MAP) for investigating the target site of the compound of the present disclosure on Aβ1-42 fragments or Aβ1-42 oligomers was prepared with reference to Korean Patent Application No. 10-2023-0133625, which is incorporated herein by reference in its entirety.
# (§1) Briefly, to remove the bovine serum albumin coating from the plate, each well of the plate was washed three times with 200 µL of wash buffer (0.1 M sodium phosphate, 0.15 M sodium chloride, 0.05 % Tween-20, pH 7.2). Full-length and fragmented peptides of Aβ1-42 were individually dissolved in DMSO to prepare […] stock solutions, which were then diluted with binding buffer (0.1 M sodium phosphate, 0.15 M sodium chloride, 10 mM EDTA, pH 7.2) to prepare 50 µg/mL peptide solutions (5 % DMSO). 100 µL of the peptide solution was added to each well and allowed to react with the maleimide at room temperature overnight. After peptide immobilization, unbound peptides were removed by washing three times with 200 µL of wash buffer. To inactivate residual maleimide groups, 200 µL of a cysteine solution (10 µg/mL in binding buffer) was added to each well and incubated at room temperature for 1 hour. After cysteine capping, all wells of the plate were washed three times with 200 µL of wash buffer.
# Two conditions were prepared to confirm whether the compound of the present disclosure targets the structure or the sequence of Aβ oligomers. First, the compound of the present disclosure (50 µM) was prepared in binding buffer (10 % DMSO), and 100 µL of the compound was added to the MAP and treated for 24 hours at room temperature. After incubation, all wells were washed three times with 200 µL of wash buffer. Second, full-length Aβ1-42 peptide was added to the MAP and incubated at 37 °C for 8 hours to form complexes between full-length Aβ1-42 and fragmented Aβ1-42. […] The fluorescence intensity of both plates was measured using a microplate reader (λex = 285 nm/λem = 475 nm). […]
# [2] = target: T2, Aβ1-42 oligomers (Homo sapiens, UniProt P05067); test: Selectivity for Aβ variant oligomers (fluorescence); assay type: binding; conditions: oligomeric Aβ variants 10 µM each; IK15j (10 µM)
# T2 construct: Aβ1-42 peptide was aggregated at 37 °C for 8 hours
# T2 sequence (P05067 672-713): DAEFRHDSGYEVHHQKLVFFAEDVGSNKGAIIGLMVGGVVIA
# Experimental: Accordingly, Aβ variant oligomers were prepared and incubated with IK15j to investigate the selectivity of the compound for Aβ variants. Briefly, samples of oligomeric Aβ1-40, Aβ1-42, and AβpE3-42 (10 µM each) were each treated with IK15j (10 µM), and the fluorescence intensity of each Aβ variant sample was measured.
# [3] = target: T3, Aβ oligomer-albumin complex (Homo sapiens, UniProt P05067); test: Plate-immobilized Aβ oligomer-albumin complexes versus Aβ oligomers; assay type: binding; conditions: immobilized on a plate; IK15j (25 µM)
# T3 construct: purchased Sigma-Aldrich (albumin)
# T3 sequence (P05067 672-713, one chain of several): as the sequence (P05067 672-713) above
# Experimental: Full-length Aβ1-42 peptide was immobilized on a maleimide-activated microplate. Then, the plate was treated with additional Aβ1-42 peptide (10 µM) at 37°C for 8 hours. After peptide immobilization, unbound peptides were removed by washing three times with 200 µL of wash buffer. To form albumin-Aβ oligomer complexes, the plate was treated with albumin (10 µM, Sigma-Aldrich, USA) at room temperature for 24 hours, and unbound residues were removed by washing three times with 200 µL of wash buffer. The control Aβ oligomer wells were not treated with albumin. Each well was treated with the compound of the present disclosure (100 µM), and the signal of each sample was detected using a microplate reader (λex = 285 nm / λem = 475 nm).
# Subsequently, both wells were treated with IK15j (25 µM), and the signals were compared (FIG. 9D).
# [4] = target: T4, Aβ oligomers (Homo sapiens, UniProt P05067); test: Detection of Aβ oligomers spiked into human plasma; assay type: binding; conditions: IK15j (100 µM) for 8 hours
# T4 construct: Aβ1-42 peptide was aggregated at 37 °C for 8 hours
# T4 sequence (P05067 672-713): as above
# Experimental: Aβ1-42 peptide (1,000, 100, 10, 1, 0.1, 0.01, and 0.001 pg/mL) was aggregated at 37 °C for 8 hours and added to human plasma (Sigma-Aldrich, USA). Then, each plasma sample was treated with the compound of the present disclosure (100 µM) for 8 hours at room temperature. The signal of each sample was detected using a microplate reader (λex = 285 nm / λem = 475 nm).
# To investigate whether the compound of the present disclosure interacts with Aβ oligomers in plasma, Aβ oligomers were spiked into human plasma (at 100, 10, 1, 0.1, 0.01, 0.001, and 0 pg/mL) and treated with IK15j (100 µM) for 8 hours, as described in Reference Example 9.
# [5] = target: T5, Aβ oligomers (oAβ) (Homo sapiens, UniProt P05067); test: Fluorescence on plate-immobilized Aβ monomers and oligomers; assay type: binding; conditions: mAβ and oAβ at 10 µM each immobilized on a plate; IK15j (100 µM) for 24 hours
# T5 construct: Full-length and fragmented peptides of Aβ1-42 were individually dissolved in DMSO
# T5 sequence (P05067 672-713): as above
# Experimental: as §1, with “To inactivate residual maleimide groups, 200 µL of a cysteine solution (10 µg/mL in binding buffer) was added to each well and incubated at room temperature for 1 hour. After cysteine capping, all wells of the plate were washed three times with 200 µL of wash buffer.” left out
# In addition, considering that EPPS might interfere with the interaction between IK15j and Aβ monomers, Aβ monomers and oligomers were immobilized on a plate according to the Aβ immobilization protocol of Reference Example 2, and then incubated with IK15j. Briefly, Aβ monomers (mAβ) and Aβ oligomers (oAβ) at 10 µM each were immobilized on a plate, treated with IK15j (100 µM) for 24 hours, and the fluorescence intensity was then measured; blank wells were treated with IK15j (100 µM) alone without immobilization of Aβ species.
# [6] = MAP incubated with additional Aβ1-42 for 8 hours, then IK15j for 24 hours
# T1 sequence (P05067 672-713, one chain of several): as the sequence (P05067 672-713) above
smiles,measurement,setting,value
"Cc1ccc2c(c1)c(-c1ccccc1)cn1c(C)cc(C#N)c21 [IK15j, 3,8-dimethyl-6-phenylpyrrolo[2,1-a]isoquinoline-1-carbonitrile]","binding affinity for the N-terminus of Aβ, Aβ1-8 (DAEFRHDS)",[1]; MAP complexes,moderate binding affinity
same,binding to complexes of Aβ1-42 with Aβ19-25 (FFAEDVG) and Aβ35-42 (MVGGVVIA),[1]; [6],bound strongly
same,overall signal in the presence of Aβ1-42-Aβn-(n+5) complexes,[1]; [6],increased
same,fluorescence intensity in the presence of Aβ1-42 oligomers compared to Aβ1-40 or AβpE3-42 oligomers,[2],increased markedly
same,"fluorescence intensity, Aβ oligomer-albumin complex versus Aβ oligomers alone",[3],no significant difference in fluorescence intensity
same,signal in spiked human plasma compared to blank human plasma (0 pg/mL),[4]; 1 pg/mL Aβ oligomers spiked,increased significantly
same,increase in fluorescence intensity compared to the control,[4]; 10-100 pg/mL Aβ spiked human plasma samples,52%
same,fluorescence signal with Aβ oligomers in contrast to Aβ monomers,[5],markedly increased
